Test results: the supplement of paper PMC10307832

How the values were obtained:
Test in all cases: relative viability (nuclei count vs DMSO), 5 days (fraction); higher = more cells survive
NCI-H661 = test system: NCI-H661
How it was run: (§1)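 Nuclei were stained with Hoechst during a one-step fixation (final 0.05% Triton X-100, 1% formaldehyde, 1 ug/ml Hoechst) carried out 5 days after dosing, then counted on 4× images. The cells, lung cancer lines in 1536-well plates, had been dosed by pin tool the day after seeding with one drug alone or a fixed anchor-drug dose plus five library-drug doses (not always all listed) in √10 steps. Relative viability is the nuclei count in treated wells divided by that in vehicle wells, and each value is the median of duplicate plates.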

201T = test system: 201T
How it was run: as §1

NCI-H1666 = test system: NCI-H1666
How it was run: as §1

BEN = test system: BEN
How it was run: as §1

NCI-H2170 = test system: NCI-H2170
How it was run: as §1

NCI-H2009 = test system: NCI-H2009
How it was run: as §1

HCC-366 = test system: HCC-366
How it was run: as §1

CAL-12T = test system: CAL-12T
How it was run: as §1

EKVX = test system: EKVX
How it was run: as §1

NCI-H460 = test system: NCI-H460
How it was run: as §1

COR-L 105 = test system: COR-L 105
How it was run: as §1

NCI-H441 = test system: NCI-H441
How it was run: as §1

NCI-H3122 = test system: NCI-H3122
How it was run: as §1

NCI-H727 = test system: NCI-H727
How it was run: as §1

PC-14 = test system: PC-14
How it was run: as §1

NCI-H1650 = test system: NCI-H1650
How it was run: as §1

SW 900 = test system: SW 900
How it was run: as §1

LOU-NH91 = test system: LOU-NH91
How it was run: as §1

ABC-1 = test system: ABC-1
How it was run: as §1

LK-2 = test system: LK-2
How it was run: as §1

HARA = test system: HARA
How it was run: as §1

NCI-H1437 = test system: NCI-H1437
How it was run: as §1

O=c1cc(N2CCOCC2)oc2c(-c3cccc4c3sc3ccccc34)cccc12 + Cc1nc(Nc2ncc(C(=O)Nc3c(C)cccc3Cl)s2)cc(N2CCN(CCO)CC2)n1 [Dasatinib] (partner 0.075 µM)
relative viability (NCI-H661; first compound 0.01 µM): 0.764
relative viability (NCI-H661; first compound 0.03162 µM): 0.869
relative viability (NCI-H661; first compound 0.1 µM): 0.889
relative viability (NCI-H661; first compound 0.3162 µM): 0.993
relative viability (NCI-H661; first compound 1 µM): 0.842
relative viability (201T; first compound 0.01 µM): 0.592
relative viability (201T; first compound 0.03162 µM): 0.592
relative viability (201T; first compound 0.1 µM): 0.596
relative viability (201T; first compound 0.3162 µM): 0.505
relative viability (201T; first compound 1 µM): 0.596
relative viability (NCI-H1666; first compound 0.01 µM): 0.775
relative viability (NCI-H1666; first compound 0.03162 µM): 0.787
relative viability (NCI-H1666; first compound 0.1 µM): 0.755
relative viability (NCI-H1666; first compound 0.3162 µM): 0.809
relative viability (NCI-H1666; first compound 1 µM): 0.754
relative viability (BEN; first compound 0.01 µM): 0.317
relative viability (BEN; first compound 0.03162 µM): 0.362
relative viability (BEN; first compound 0.1 µM): 0.3
relative viability (BEN; first compound 0.3162 µM): 0.354
relative viability (BEN; first compound 1 µM): 0.266
relative viability (NCI-H2170; first compound 0.01 µM): 0.574
relative viability (NCI-H2170; first compound 0.03162 µM): 0.569
relative viability (NCI-H2170; first compound 0.1 µM): 0.728
relative viability (NCI-H2170; first compound 0.3162 µM): 0.557
relative viability (NCI-H2170; first compound 1 µM): 0.621
relative viability (NCI-H2009; first compound 0.01 µM): 0.317
relative viability (NCI-H2009; first compound 0.03162 µM): 0.268
relative viability (NCI-H2009; first compound 0.1 µM): 0.303
relative viability (NCI-H2009; first compound 0.3162 µM): 0.277
relative viability (NCI-H2009; first compound 1 µM): 0.256
relative viability (HCC-366; first compound 0.01 µM): 0.672
relative viability (HCC-366; first compound 0.03162 µM): 0.69
relative viability (HCC-366; first compound 0.1 µM): 0.725
relative viability (HCC-366; first compound 0.3162 µM): 0.601
relative viability (HCC-366; first compound 1 µM): 0.618
relative viability (CAL-12T; first compound 0.01 µM): 0.322
relative viability (CAL-12T; first compound 0.03162 µM): 0.531
relative viability (CAL-12T; first compound 0.1 µM): 0.49
relative viability (CAL-12T; first compound 0.3162 µM): 0.317
relative viability (CAL-12T; first compound 1 µM): 0.295
relative viability (EKVX; first compound 0.01 µM): 0.528
relative viability (EKVX; first compound 0.03162 µM): 0.469
relative viability (EKVX; first compound 0.1 µM): 0.672
relative viability (EKVX; first compound 0.3162 µM): 0.607
relative viability (EKVX; first compound 1 µM): 0.605
relative viability (NCI-H460; first compound 0.01 µM): 0.558
relative viability (NCI-H460; first compound 0.03162 µM): 0.54
relative viability (NCI-H460; first compound 0.1 µM): 0.516
relative viability (NCI-H460; first compound 0.3162 µM): 0.512
relative viability (NCI-H460; first compound 1 µM): 0.452
relative viability (COR-L 105; first compound 0.01 µM): 0.316
relative viability (COR-L 105; first compound 0.03162 µM): 0.327
relative viability (COR-L 105; first compound 0.1 µM): 0.314
relative viability (COR-L 105; first compound 0.3162 µM): 0.372
relative viability (COR-L 105; first compound 1 µM): 0.304
relative viability (NCI-H441; first compound 0.01 µM): 0.623
relative viability (NCI-H441; first compound 0.03162 µM): 0.676
relative viability (NCI-H441; first compound 0.1 µM): 0.594
relative viability (NCI-H441; first compound 0.3162 µM): 0.492
relative viability (NCI-H441; first compound 1 µM): 0.574
relative viability (NCI-H3122; first compound 0.01 µM): 0.667
relative viability (NCI-H3122; first compound 0.03162 µM): 0.836
relative viability (NCI-H3122; first compound 0.1 µM): 0.753
relative viability (NCI-H3122; first compound 0.3162 µM): 0.764
relative viability (NCI-H3122; first compound 1 µM): 0.751
relative viability (NCI-H727; first compound 0.01 µM): 0.466
relative viability (NCI-H727; first compound 0.03162 µM): 0.292
relative viability (NCI-H727; first compound 0.1 µM): 0.456
relative viability (NCI-H727; first compound 0.3162 µM): 0.367
relative viability (NCI-H727; first compound 1 µM): 0.38
relative viability (PC-14; first compound 0.01 µM): 0.237
relative viability (PC-14; first compound 0.03162 µM): 0.267
relative viability (PC-14; first compound 0.1 µM): 0.276
relative viability (PC-14; first compound 0.3162 µM): 0.257
relative viability (PC-14; first compound 1 µM): 0.237
relative viability (NCI-H1650; first compound 0.01 µM): 0.34
relative viability (NCI-H1650; first compound 0.03162 µM): 0.33
relative viability (NCI-H1650; first compound 0.1 µM): 0.315
relative viability (NCI-H1650; first compound 0.3162 µM): 0.287
relative viability (NCI-H1650; first compound 1 µM): 0.276
relative viability (SW 900; first compound 0.01 µM): 0.476
relative viability (SW 900; first compound 0.03162 µM): 0.648
relative viability (SW 900; first compound 0.1 µM): 0.66
relative viability (SW 900; first compound 0.3162 µM): 0.539
relative viability (SW 900; first compound 1 µM): 0.507
relative viability (LOU-NH91; first compound 0.01 µM): 0.546
relative viability (LOU-NH91; first compound 0.03162 µM): 0.55
relative viability (LOU-NH91; first compound 0.1 µM): 0.537
relative viability (LOU-NH91; first compound 0.3162 µM): 0.584
relative viability (LOU-NH91; first compound 1 µM): 0.563
relative viability (ABC-1; first compound 0.01 µM): 0.569
relative viability (ABC-1; first compound 0.03162 µM): 0.561
relative viability (ABC-1; first compound 0.1 µM): 0.582
relative viability (ABC-1; first compound 0.3162 µM): 0.488
relative viability (ABC-1; first compound 1 µM): 0.567
relative viability (LK-2; first compound 0.01 µM): 0.329
relative viability (LK-2; first compound 0.03162 µM): 0.289
relative viability (LK-2; first compound 0.1 µM): 0.338
relative viability (LK-2; first compound 0.3162 µM): 0.339
relative viability (LK-2; first compound 1 µM): 0.279
relative viability (HARA; first compound 0.01 µM): 0.208
relative viability (HARA; first compound 0.03162 µM): 0.282
relative viability (HARA; first compound 0.1 µM): 0.276
relative viability (HARA; first compound 0.3162 µM): 0.268
relative viability (HARA; first compound 1 µM): 0.243
relative viability (NCI-H1437; first compound 0.01 µM): 0.337
relative viability (NCI-H1437; first compound 0.03162 µM): 0.329
relative viability (NCI-H1437; first compound 0.1 µM): 0.492
relative viability (NCI-H1437; first compound 0.3162 µM): 0.509
relative viability (NCI-H1437; first compound 1 µM): 0.344
